This is an account of results in patent EP1859794A1, “Sustained release supplements” (priority 2006, dated 2007).

A short description of series [1]: FTNIR / HPLC analysis of creatine and creatinine, as is or dry basis. The format is physicochemical. As to conditions: before digestion simulation. As to the method:
Tests on the coated Tablet prepared as described in Example 2 but with addition of 6% by tablet weight of PV/AP, creatine monohydrate powder and capsules of creatine monohydrate were carried out
These tests were done on an "AS IS or DRY BASIS.
Identification performed by FINIR, against in-house external library standards obtained from Sigma & produced by HPLC. / Quantification by FTNIR against external library standards obtained from Sigma & produced by HPLC
Bran & Luebbe InfraProver II FTNIR
Analysis performed by HPLC using Intersil ODS-2 5um (250x4.dmm) and 25 min. gradient elution with 0.1% phosphoric acid buffer in H2O and 0.1% phosphoric acid in acetonitrile. External reference standards obtained from Sigma-Aldrich.

Series [2] is described as follows: Stamina and strength of athletes taking creatine (free weights and hammer strength machines). The format is in vivo, human. To be noted: two subjects. On the procedure:
Week 1-4: Two subjects were administered creatine monohydrate in powder form for four weeks. 2 grams were taken in the A.M. before breakfast.
No changes were made to diet and athletes were working out 4 times per week.
Stamina & Strength levels were monitored at the beginning of the study and every workout for 4 weeks.
A combination of free weights and hammer strength machines were used.
Week 5-8. Athletes discontinued creatine use. After 1 week the stomach bloat, bloating of the ankles and wrist, along with diarrhea and loose stools disappeared. About a 1% increase in strength was again noticed by the end of week 8, due to old fashioned hard work.
Week 9-12. Athletes were administered one 750 mg sustained released tablet in the a.m. and one 750 mg tablet in the afternoon. The breakdown of these tablets were 9 hours.

Series [3] in a line: Digestion simulation in stomacher at pH 3 for 60 minutes, total creatine and creatinine levels. The format is physicochemical. On the procedure: 1 capsule of creatine (500 mg) and 500 mg of powder was used along with 1 tablet of 500 mg of Sustained Released Creatine.
All 3 products were placed in a stomacher at pH 3 for 60 minutes to simulate digestion. Stomacher contained 1 liter of fluid with pH being adjusted with hydrochloric acid to simulate digestion.
After 60 minutes of digestion simulation in stomacher, all 3 products were tested for: • Total Creatine levels • Total Creatinine levels

The next series in a line: physchem. Type of series: physicochemical. To be noted: simulated gastric solution, pH 4. On the procedure:
TABLE 2 Change in creatine with time at pH 4
The determination was based upon formation of creatinine under buffered incubation conditions. A solution of 1% creatine in simulated gastric solution (0.5% betain/pepsin in 1M HEPES buffer pH controlled with 5M HC1 and 5N NaOH). Creatinine determination performed by PDA spectrophotometer in kinetic mode, scanning at 15 sec intervals with an integration time of 0.5 sec. Detection in 1 cm path length flow call at 37°C with test analyte flowing at 1 ml/min. Reagents obtained from Sigma-Aldrich.

[4] abbreviates: 2 grams in the A.M. before breakfast, week 1-4.

By share remaining is commonly meant the share of the starting amount still present when the sample was taken.

`CN(CC(=O)O)C(=N)N.O` [Creatine Powder, creatine monohydrate]: in series [1], the Creatine result is on record as “Creatine 100.1%” and the Creatinine entry is “Creatinine <200ppm”. Also, in series [2] (setting [4]), the side effects entry was “Stomach bloating, bloating of the ankles and wrist, along with diarrhea and loose stools”; the stamina increase entry is listed as “did not notice any stamina increase”. Further, in series [2] (2 grams in the A.M. before breakfast, week 1-4, not attributed to creatine), the increase in strength was around 1%. Also, in series [2] (2 grams in the A.M., week two through week four), the “over all sense of tiredness” value is “set in after week two and lasted through week four”. Besides, in series [3] (500 mg elemental creatine added to stomacher at pH 3, 1 liter of fluid), the “pH of Stomacher after addition of product” value is 3.5. Further, the “creatine converted to creatinine after 60 minutes (in words)” value in series [3] (500 mg, stomacher at pH 3, 60 minutes) was “all creatine being converted to creatinine”. For the same compound, in series [3] (acidified fluid, 500 mg elemental creatine, stomacher at pH 3, 60 minutes, read-out: Total conversion to Creatinine after 60 minutes of digestion), the degraded at 1 h was 100%.
As for `CN(CC(=O)O)C(=N)N` [creatine], in the series “physchem”, the share remaining at 15 s was 94%, the fraction remaining at 0.5 min was 86%, the share remaining at 45 s was 75% and the share remaining at 1 min is 66%. Besides, in “physchem”, the share remaining at 75 s was 57%, the amount remaining at 0.025 h is 49%, the fraction remaining at 105 s is 38% and the amount remaining at 2 min was 31%. In the series “physchem”, this compound displayed a share remaining at 135 s of 21%, an amount remaining at 2.5 min of 16%, a fraction remaining at 165 s of 6% and a share remaining at 0.05 h of 0.5%.
